Results taken from PubChem BioAssay AID720578 (The Scripps Research Institute Molecular Screening Center, 2013).
Activity calls are given as the source filed them. No rule for the calls is given here.

The compounds below were run against Crimean-Congo hemorrhagic fever virus L protein viral ovarian tumor (vOTU) protease domain (assay: CCHFV vOTU protease inhibitor potency, dose response, biochemical, fluorescence, Pep-AMC substrate (AID 720578)). Settings: recombinant CCHFV vOTU, Pep-AMC fluorescence cleavage.
In the case of `CCOC(=O)c1c2c(n(Cc3ccccc3)c1C)C(=O)C(=O)c1ccccc1-2`, the IC50 is reported as 2.16 µM.
Compound `O=C(N/N=C1\C/C(=N\NC(=O)c2ccncc2)c2ccccc21)c1ccncc1` has an IC50 of 0.701 µM.
For `Cc1ccc(NC2=C(N3CCOCC3)C(=O)c3ccccc3C2=O)cc1`, the IC50 was 4.31 µM.
`CC(=O)N(C1=C(Cl)C(=O)c2ccccc2C1=O)c1ccc(C(=O)O)cc1` was tested, and the IC50 was 2.74 µM.
For `O=C(NC1=CC(=O)c2ccccc2C1=O)c1ccccc1`, the IC50 was 3.85 µM.
`CCc1ccc(S(=O)(=O)Nc2cc(SCC(=O)O)c(O)c3ccccc23)cc1` showed an IC50 of 7.64 µM.
For `CCC(C)n1c(NC(=O)c2ccccc2)c(C#N)c2nc3ccccc3nc21` (centres undefined), the IC50 was 8.97 µM.
`CC(=O)N(C)c1ccc(N=Cc2cc3c(cc2[N+](=O)[O-])OCO3)cc1` was tested, and the IC50 was “inactive”.
`O=C1C(N2CCOCC2)=C(n2nnc3ccccc32)C(=O)c2ccccc21` gave an IC50 of 2.69 µM.
In the case of `COc1ccc(C(C[N+](=O)[O-])c2c(C)[nH]n(-c3ccccc3)c2=O)cc1` (centres undefined), the IC50 is reported as “inactive”.
With `COc1cc(Br)c(C(=O)c2nccc3cc(OC)c(OC)cc23)cc1OC` the IC50 was 0.27 µM.
With `NC1=C(Cl)C(=O)c2ccc(S(N)(=O)=O)cc2C1=O` the IC50 was 0.127 µM.
Work on `NC1=C(Br)C(=O)c2ncccc2C1=O` yielded an IC50 of 0.435 µM.
In the case of `CCOC(=O)C1CCN(C(=O)c2c(C)oc3c2C(=O)c2ccccc2C3=O)CC1`, the IC50 is reported as “inactive”.
`COc1ccc(Cc2nccc3cc(OC)c(OC)cc23)cc1OC` was tested, and the IC50 was “inactive”.
With `O=C1C=C(Nc2ccccc2C(=O)O)c2ccccc2C1=O` the IC50 was 3.59 µM.
With `Cc1cccc(NC(=O)c2sc3nc4c(c(-c5cccs5)c3c2N)CN(C)CC4)c1` the IC50 was “inactive”.
`COc1cc(NCCCC(C)N)c2ncccc2c1` (centres undefined) was tested, and the IC50 was 2.52 µM.
`Cc1oc2c(c1C(=O)O)C(=O)c1ccccc1C2=O` gave an IC50 of 9.12 µM.
In the case of `CCCNC1=C(N(C(C)=O)c2cccc(F)c2)C(=O)c2ccccc2C1=O`, the IC50 is reported as “inactive”.
`NC1=CC(=O)C(=O)c2cccnc21` showed an IC50 of 1.85 µM.
In the case of `Cn1nc(-c2ccccn2)nc2c(=O)n(C)c(=O)nc1-2`, the IC50 is reported as 0.366 µM.
In the case of `Cc1ccccc1NC1=C/C(=N\S(=O)(=O)c2ccc(C(=O)O)cc2)c2ccccc2C1=O`, the IC50 is reported as 0.257 µM.
For `O=[N+]([O-])c1cc(O)c2ncccc2c1`, the IC50 was “inactive”.
In the case of `O=C1Cc2ccccc2C(=O)N1Cc1ccccc1`, the IC50 is reported as 1.28 µM.
Compound `O=C1Nc2ccc([N+](=O)[O-])cc2C1=Nc1cccc(CO)c1` has an IC50 of 8.78 µM.
In the case of `COc1ccc(N2C(=O)[C@@H]3[C@H](C2=O)[C@H]2c4ccccc4C=CN2[C@@H]3C(C)=O)cc1`, the IC50 is reported as “inactive”.
`CC1OC2CC(=O)OC2C2=C1C(=O)c1c(O)cccc1C2=O` (centres undefined) was tested, and the IC50 was 3.45 µM.
Compound `Cc1cc(NC2=CC(=O)C(=O)c3ccccc32)no1` has an IC50 of 5.6 µM.
In the case of `CCn1nc(/C=C/c2ccccc2)nc2c(=O)n(C)c(=O)nc1-2`, the IC50 is reported as 0.276 µM.
Compound `COc1cc(NC(=O)COC(=O)c2ccc([N+](=O)[O-])s2)cc(OC)c1OC` has an IC50 of 6.6 µM.
In the case of `O=[N+]([O-])c1c(Nc2ccccn2)cc(Cl)c2nonc12`, the IC50 is reported as “inactive”.
For `Oc1c(N=Nc2nn[nH]n2)ccc2ccccc12`, the IC50 was 5.11 µM.
`CC(=O)[C@H]1[C@@H]2C(=O)N(c3cccc(Cl)c3)C(=O)[C@@H]2[C@H]2c3ccccc3C=CN21` was tested, and the IC50 was “inactive”.
With `O=C(/C=C/c1ccc([N+](=O)[O-])s1)N1CCCCC1` the IC50 was “inactive”.
With `C[n+]1c(-c2ccccc2)cc2c(=Cc3ccccc3)c3ccccc3n21` the IC50 was 4.95 µM.
For `COC(CNC(=O)c1ccc2c3c(onc13)-c1ccccc1C2=O)OC`, the IC50 was 3.5 µM.
With `O=S(=O)(Nc1cc(Sc2ncn[nH]2)c(O)c2ccccc12)c1ccccc1` the IC50 was 0.708 µM.
`Cn1c(=O)c2c(-c3ccccc3)n(-c3ccc(N)cc3)cc2n(C)c1=O` showed an IC50 of 4.53 µM.
In the case of `COc1ccc(-n2c3nc4ccccc4nc3c3c(=N)oc(C)nc32)cc1`, the IC50 is reported as “inactive”.
For `CCCCCCCCCCOC(=O)Cn1c(COc2ccc(Cl)cc2)[n+](C)c2ccccc21`, the IC50 was “inactive”.
`CN1CCN(C2=C(Cl)C(=O)c3ccccc3C2=O)CC1` showed an IC50 of 0.276 µM.
With `Oc1c(C=Nc2cccc3nsnc23)ccc2ccccc12` the IC50 was “inactive”.
`COc1ccc(S(=O)(=O)/N=C2\C=C(Nc3ccc(O)cc3)C(=O)c3ccccc32)cc1` gave an IC50 of 0.375 µM.
`CC(=O)N(/N=C1\Sc2ccccc2C1=O)c1ccccc1C` was tested, and the IC50 was “inactive”.
For `COc1cccc2c1C(=O)c1c(O)c3c(c(O)c1C2=O)C[C@@](O)(C(=O)CO)C[C@@H]3O[C@H]1C[C@H](N)[C@H](O)[C@H](C)O1`, the IC50 was “inactive”.
With `CC(=O)Nc1ccc(S(=O)(=O)NC2=C(N3CCN(c4ccc(F)cc4)CC3)C(=O)c3ccccc3C2=O)cc1` the IC50 was “inactive”.
For `O=C(NC1=C(NC2CCS(=O)(=O)C2)C(=O)c2ccccc2C1=O)c1ccccc1` (centres undefined), the IC50 was 3.93 µM.
Work on `COc1ccccc1Nc1cc2cc(Br)ccc2c(=O)[nH]1` yielded an IC50 of 1.05 µM.
In the case of `CCOC(=O)c1cc2c(=Cc3ccc(N(C)C)cc3)c3ccccc3n2[n+]1C`, the IC50 is reported as 7.38 µM.
`O=C(c1ccco1)[C@@H]1[C@@H]2C(=O)N(c3ccc(Br)cc3)C(=O)[C@@H]2C2c3ccccc3C=CN21` (some centres undefined) gave an IC50 of 5.26 µM.
In the case of `CN(C)c1cccc2c1c(NS(=O)(=O)c1cn(C)cn1)nn2C`, the IC50 is reported as “inactive”.
`C[n+]1c(-c2ccccc2)c2cc(N)ccc2c2ccc(N)cc21` gave an IC50 of 3.68 µM.
For `O=[N+]([O-])c1ccccc1-c1ccc(C(=S)N2CCCC2)o1`, the IC50 was “inactive”.
For `O=C(NC(=S)Nc1ccccc1N1CCCC1)c1ccccc1Br`, the IC50 was “inactive”.
Compound `O=C(NCCCO)c1ccc2nc(-c3ccco3)c(-c3ccco3)nc2c1` has an IC50 of 9.45 µM.
`O=C1C=C(N2CCCCC2)c2ccccc2C1=O` gave an IC50 of 7.75 µM.
`CC[C@H](CO)Oc1cc(NCc2cccc(N)c2)c2ncn(C(C)C)c2c1` was tested, and the IC50 was 6.52 µM.
For `Cc1c(C=O)c(Cl)n(C)c(=O)c1C#N`, the IC50 was “inactive”.
`CCCCCCCCCCCCCCCCn1cc[n+](C)c1` was tested, and the IC50 was “inactive”.
Work on `NC(=S)N=Nc1c(O)cc(O)c2[nH]c(=O)ccc12` yielded an IC50 of 9.78 µM.
`O=C(O)c1cc(O)c2c(c1)[C@H]([C@H]1c3cc(C(=O)O)cc(O)c3C(=O)c3c(O[C@@H]4O[C@H](CO)[C@@H](O)[C@H](O)[C@H]4O)cccc31)c1cccc(OC3O[C@H](CO)[C@@H](O)[C@H](O)[C@H]3O)c1C2=O` (some centres undefined) gave an IC50 of 6.47 µM.
With `Cc1coc2c(O)cc3c(c12)OC1(N2CCCCC2)C(=O)NCCCC31` (centres undefined) the IC50 was “inactive”.
`O=C1NNC(c2ccccc2)=N/C1=C\c1ccccc1Cl` was tested, and the IC50 was “inactive”.
With `CCCCn1c(NS(=O)(=O)c2ccccc2)c(C(=O)OCC)c2nc3ccccc3nc21` the IC50 was > 115 µM (inactive).
For `CNc1ccc2nc3ccccc3[n+](C)c2c1`, the IC50 was “inactive”.
Compound `Cc1cc2c(cc1C)C(=O)C(Br)=C(N)C2=O` has an IC50 of 5.56 µM.
In the case of `O=C1NC(c2ccc(-c3ccccc3[N+](=O)[O-])o2)C(C(=O)c2ccc(Cl)cc2)C(O)(C(F)(F)F)N1` (centres undefined), the IC50 is reported as “inactive”.
Work on `COC1=CC(=O)c2c(ccc3ncnc(N)c23)C1=O` yielded an IC50 of 0.396 µM.
Compound `CC(=O)c1ccc(NC(=S)Nc2cccc3cnccc23)cc1` has an IC50 of 6.84 µM.
For `O=C1C(Cl)=C(NCCCO)C(=O)c2ccccc21`, the IC50 was “inactive”.
`CCOC(=O)N=Nc1c2ccccc2c2nc3no[nH]c3nc12` gave an IC50 of 2.35 µM.
`CCCCCCCCCCCCN1[C@@H](CC(=O)O)c2cc(F)ccc2S1(=O)=O` was tested, and the IC50 was “inactive”.
With `O=C(NC(=S)Nc1ccccc1N1CCCC1)c1cccs1` the IC50 was “inactive”.
For `Clc1ccc(C2=CSC3=Nc4cccc5cccc(c45)N23)cc1`, the IC50 was “inactive”.
Work on `COC(=O)c1nc(-c2ccc3c(n2)C(=O)C(N)=C(OC)C3=O)c(N)c(-c2ccc(OC)c(OC)c2O)c1C` yielded an IC50 of 0.931 µM.
`O=C(COC(=O)c1ccc([N+](=O)[O-])s1)Nc1ncc(C(F)(F)F)cc1Cl` showed an IC50 of 8.84 µM.
`Cc1cnc(C=NNC(N)=S)c2cccc(N)c12` gave an IC50 of 2.95 µM.
For `Nc1cc2c(cc1Br)[nH]c(=O)c1ccccc12`, the IC50 was 3.2 µM.
In the case of `COc1cc2c(cc1OC)-c1c(OC)c(OC)cc3c1C(C2)N(C)CC3` (centres undefined), the IC50 is reported as > 115 µM (inactive).
`CC(C)(C)c1cc[n+](C2=C([O-])c3ccccc3C(=O)/C2=N\S(=O)(=O)c2cccs2)cc1` gave an IC50 of 6.78 µM.
With `Cc1ccc(S(=O)(=O)/N=C2\C=C(Nc3cccc(C(=O)O)c3)C(=O)c3ccccc32)cc1` the IC50 was 0.771 µM.
With `O=C1Cc2ccccc2C(=O)N1` the IC50 was 0.396 µM.
For `NC1=C(Br)C(=O)c2ccccc2C1=O`, the IC50 was 4.48 µM.
With `COc1cc(C=c2c3ccccc3n3c2cc(-c2ccccc2)[n+]3C)cc(OC)c1OC` the IC50 was 6.76 µM.
For `COc1cc(C(=O)c2nccc3cc(OC)c(OC)cc23)c([N+](=O)[O-])cc1OC`, the IC50 was 1.05 µM.
`CN(C1=C(NC(=O)c2ccccc2)C(=O)c2ccccc2C1=O)C1CCS(=O)(=O)C1` (centres undefined) showed an IC50 of 2.43 µM.
`O=C(COC(=O)c1ccc([N+](=O)[O-])s1)Nc1ccc(F)cc1` showed an IC50 of 7.79 µM.
`CCC(CNc1cc(OC)cc2cccnc12)NC1CCCCC1` (centres undefined) was tested, and the IC50 was 6.32 µM.
`CC1OC(CC(=O)O)CC2=C1C(=O)c1c(O)cccc1C2=O` (centres undefined) showed an IC50 of 3.82 µM.
`COc1ccc(/C=N/NC(=O)c2nn(-c3ccc(Cl)cc3)c(=O)c3c(N)scc23)cc1` was tested, and the IC50 was “inactive”.
For `Nc1scc2c(C(=O)N/N=C/c3ccc(Cl)cc3)nn(-c3ccccc3)c(=O)c12`, the IC50 was “inactive”.
Work on `O=C1C(SCCO)=C(SCCO)C(=O)c2ccccc21` yielded an IC50 of 2.15 µM.
Compound `CC1COCC(C)N1C1=C(Cl)C(=O)c2ccccc2C1=O` (centres undefined) has an IC50 of 5.07 µM.
`CN1CCC/C1=C/C=C1\SC(=S)NC1=O` was tested, and the IC50 was “inactive”.
`O=c1[nH]c(Nc2ccccc2)cc2cc(Br)ccc12` showed an IC50 of 1 µM.
`O=C1C=C(N2CCOCC2)c2ccccc2C1=O` gave an IC50 of 4.21 µM.
`COc1ccccc1N=Nc1c(O)[nH]c(=S)[nH]c1=O` was tested, and the IC50 was “inactive”.
Work on `O=C(O)CSc1cc(NS(=O)(=O)c2ccc(Br)cc2)c2ccccc2c1O` yielded an IC50 of 4.45 µM.
Compound `CC1CCCC(NC(=O)COC(=O)c2ccc([N+](=O)[O-])s2)C1C` (centres undefined) has an IC50 of 9.22 µM.
`COc1ccc(/C=N/NC(=O)c2nn(-c3ccccc3)c(=O)c3c(N)scc23)cc1` was tested, and the IC50 was 8.43 µM.
Compound `CC1(C)C=C2C(=NN(c3ccccc3)C(N)=C2C#N)CO1` has an IC50 of 1.83 µM.
In the case of `C=CCN1C=CC(=C/C=C(/C#N)C(=O)OCC)C=C1`, the IC50 is reported as “inactive”.
`Nc1ccc(N2CCCCC2)c2nonc12` was tested, and the IC50 was “inactive”.
`CN=c1sc2c(n1C)C(=O)c1ccccc1C2=O` was tested, and the IC50 was 1.78 µM.
In the case of `O=S(=O)(Nc1c(S(=O)(=O)c2ccccc2)c2nc3ccccc3nc2n1C1CCCCC1)c1ccccc1`, the IC50 is reported as > 115 µM (inactive).
For `COC1=C(N)C(=O)c2nc(C)ccc2C1=O`, the IC50 was 1.37 µM.
With `Cc1ccccc1-c1cc2c(nn1)-c1ccccc1C2=O` the IC50 was 0.457 µM.
`O=C1C=C(NCc2ccccc2)c2ccccc2C1=O` was tested, and the IC50 was 6.23 µM.
